Measurements: US8906944B2, “Compounds as tyrosine kinase modulators” (Allergan, Inc., priority 2009, dated 2014)

Key:
Assay type in all cases: biochemical
[1] = molecular target: T1, human VEGF receptor (VEGFR-2) (Homo sapiens, UniProt P35968); test: VEGFR2 kinase assay; settings: His-VEGFR-2 cytoplasmic domain, 3.6 μM ATP; Table IV, amide or urea linker; read-out: VEGFR2 Enzyme IC50
T1 construct: The cytoplasmic domain of the human VEGF receptor (VEGFR-2) was expressed; His; made in house; host or cells: insect cells (baculovirus)
T1 sequence (P35968 786-1356 limits assumed): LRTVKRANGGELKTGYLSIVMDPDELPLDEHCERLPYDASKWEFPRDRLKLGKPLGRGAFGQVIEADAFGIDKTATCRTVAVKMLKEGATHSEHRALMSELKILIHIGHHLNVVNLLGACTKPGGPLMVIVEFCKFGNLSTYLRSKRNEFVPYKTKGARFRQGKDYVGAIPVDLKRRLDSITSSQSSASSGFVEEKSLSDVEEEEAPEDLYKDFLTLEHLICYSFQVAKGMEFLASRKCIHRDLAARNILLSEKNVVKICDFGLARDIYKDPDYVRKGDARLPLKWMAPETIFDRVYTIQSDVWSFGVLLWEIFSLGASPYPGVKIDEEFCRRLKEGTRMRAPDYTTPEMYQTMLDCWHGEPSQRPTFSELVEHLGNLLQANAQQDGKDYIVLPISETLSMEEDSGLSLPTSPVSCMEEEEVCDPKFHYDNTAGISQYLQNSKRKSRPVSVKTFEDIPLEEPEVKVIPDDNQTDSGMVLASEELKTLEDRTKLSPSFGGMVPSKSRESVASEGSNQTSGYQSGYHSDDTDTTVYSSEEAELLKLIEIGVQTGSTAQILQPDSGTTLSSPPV
Procedure: The cytoplasmic domain of the human VEGF receptor (VEGFR-2) was expressed as a Histidine-tagged fusion protein following infection of insect cells using an H is engineered baculovirus. […] Kinase assays were performed in 96 well microtiter plates that were coated overnight with 30 µg of poly-Glu-Tyr (4:1) in 10 mM Phosphate Buffered Saline (PBS), pH 7.2-7.4. The plates were incubated with 1% BSA and then washed four times with PBS prior to starting the reaction. Reactions were carried out in 120 µL reaction volumes containing 3.6 µM ATP in kinase buffer (50 mM Hepes buffer pH 7.4, 20 mM MgCl2, 0.1 mM MnCl2 and 0.2 mM Na3 VO4). […] Reactions were initiated by the addition 0.5 ng of purified protein. Following a ten minute incubation at 25 degree. […] IC50 values for compound inhibition were calculated directly from graphs of optical density (arbitrary units) versus compound concentration following subtraction of blank values.

[2] = molecular target: VEGFR1 (Homo sapiens, UniProt P17948); test: VEGFR1 enzyme assay; settings: Table IV, amide or urea linker
Chain of VEGFR1 (P17948 27-1338, species assumed): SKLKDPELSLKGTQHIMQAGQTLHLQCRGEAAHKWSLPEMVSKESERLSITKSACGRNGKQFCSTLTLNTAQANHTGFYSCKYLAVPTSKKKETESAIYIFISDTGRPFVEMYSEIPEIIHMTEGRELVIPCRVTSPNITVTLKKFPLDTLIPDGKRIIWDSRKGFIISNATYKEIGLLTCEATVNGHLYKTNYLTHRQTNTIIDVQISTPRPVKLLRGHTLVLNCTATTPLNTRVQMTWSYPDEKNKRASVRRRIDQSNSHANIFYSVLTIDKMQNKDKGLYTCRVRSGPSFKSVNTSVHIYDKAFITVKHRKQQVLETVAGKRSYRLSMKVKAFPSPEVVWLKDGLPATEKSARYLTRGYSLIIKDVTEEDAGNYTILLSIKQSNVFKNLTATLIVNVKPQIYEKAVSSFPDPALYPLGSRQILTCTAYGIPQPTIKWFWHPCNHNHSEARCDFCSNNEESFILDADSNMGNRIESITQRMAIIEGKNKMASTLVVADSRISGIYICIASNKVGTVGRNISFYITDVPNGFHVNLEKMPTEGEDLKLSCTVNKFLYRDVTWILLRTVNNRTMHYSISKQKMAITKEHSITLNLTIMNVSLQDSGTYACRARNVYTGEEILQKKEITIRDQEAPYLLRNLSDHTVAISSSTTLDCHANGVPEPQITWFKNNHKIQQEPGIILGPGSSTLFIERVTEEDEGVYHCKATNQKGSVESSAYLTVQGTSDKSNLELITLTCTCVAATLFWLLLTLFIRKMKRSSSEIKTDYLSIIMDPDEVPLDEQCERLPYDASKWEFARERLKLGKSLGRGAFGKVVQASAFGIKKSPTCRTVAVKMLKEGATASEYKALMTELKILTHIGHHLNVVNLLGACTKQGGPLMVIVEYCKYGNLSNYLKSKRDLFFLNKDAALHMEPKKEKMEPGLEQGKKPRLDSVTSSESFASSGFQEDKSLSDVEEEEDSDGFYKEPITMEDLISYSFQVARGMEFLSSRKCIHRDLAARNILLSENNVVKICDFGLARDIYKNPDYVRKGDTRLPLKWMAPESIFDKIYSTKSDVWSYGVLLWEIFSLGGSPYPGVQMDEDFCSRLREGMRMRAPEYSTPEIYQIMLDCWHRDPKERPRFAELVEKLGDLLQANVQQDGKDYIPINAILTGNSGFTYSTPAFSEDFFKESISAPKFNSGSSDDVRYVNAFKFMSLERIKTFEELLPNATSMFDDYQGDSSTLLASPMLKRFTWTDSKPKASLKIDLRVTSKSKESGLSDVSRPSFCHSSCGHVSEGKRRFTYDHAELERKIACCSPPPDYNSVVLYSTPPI

[3] = molecular target: PDGFβ (Homo sapiens, UniProt P09619); test: PDGFβ enzyme assay; settings: Table IV, amide or urea linker
Chain of PDGFβ (P09619 33-1106): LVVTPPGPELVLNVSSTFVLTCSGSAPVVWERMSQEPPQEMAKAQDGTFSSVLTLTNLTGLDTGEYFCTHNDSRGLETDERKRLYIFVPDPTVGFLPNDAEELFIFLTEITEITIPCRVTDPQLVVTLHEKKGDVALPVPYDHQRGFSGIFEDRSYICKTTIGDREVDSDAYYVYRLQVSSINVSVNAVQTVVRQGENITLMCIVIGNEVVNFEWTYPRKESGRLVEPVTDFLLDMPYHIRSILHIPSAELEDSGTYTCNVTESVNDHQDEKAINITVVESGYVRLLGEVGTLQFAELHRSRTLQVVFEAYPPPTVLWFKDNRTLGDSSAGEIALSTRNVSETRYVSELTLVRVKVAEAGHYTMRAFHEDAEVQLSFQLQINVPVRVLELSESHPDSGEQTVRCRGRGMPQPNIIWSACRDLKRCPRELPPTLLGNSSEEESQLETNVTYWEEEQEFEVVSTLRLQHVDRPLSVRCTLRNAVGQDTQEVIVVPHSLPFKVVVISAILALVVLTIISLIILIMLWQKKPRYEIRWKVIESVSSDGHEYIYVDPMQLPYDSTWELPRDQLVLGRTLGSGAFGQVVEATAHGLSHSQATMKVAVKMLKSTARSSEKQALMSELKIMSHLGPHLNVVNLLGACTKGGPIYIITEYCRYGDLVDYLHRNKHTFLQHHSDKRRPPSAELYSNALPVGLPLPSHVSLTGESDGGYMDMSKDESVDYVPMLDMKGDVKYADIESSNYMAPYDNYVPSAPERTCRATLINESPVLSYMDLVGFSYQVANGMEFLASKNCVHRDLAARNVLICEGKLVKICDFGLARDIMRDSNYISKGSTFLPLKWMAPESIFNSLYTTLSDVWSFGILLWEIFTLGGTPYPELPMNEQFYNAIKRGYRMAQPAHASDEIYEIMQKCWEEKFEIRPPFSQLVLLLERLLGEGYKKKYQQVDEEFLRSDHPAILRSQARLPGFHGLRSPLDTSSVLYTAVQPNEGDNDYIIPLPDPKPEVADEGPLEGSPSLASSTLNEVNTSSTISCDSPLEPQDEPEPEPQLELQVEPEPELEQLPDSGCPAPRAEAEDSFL

SMILES | IC50 [1] [nM] | IC50 [2] [nM] | IC50 [3] [nM]
CCNC(=O)CC[C@H](NC(=O)c1c[nH]c(-c2cc(Oc3cc(C(=O)Nc4cc(C)ccc4F)ccc3F)ccn2)c1)C(=O)NCC (stereo in doubt) [Example 246, N,N′-diethyl-2-[({5-[4-(2-fluoro-5-{[(2-fluoro-5-methylphenyl)amino]carbonyl}phenoxy)pyridin-2-yl]-1H-pyrrol-3-yl}carbonyl)amino]pentanediamide] | 42 | 62 | 54
COC(=O)CN(CCCNC(=O)c1c[nH]c(-c2cc(Oc3cc(C(=O)Nc4cc(C)ccc4F)ccc3F)ccn2)c1)CC(=O)OC [Example 178, dimethyl 2,2′-({3-[({5-[4-(2-fluoro-5-{[(2-fluoro-5-methylphenyl)amino]carbonyl}phenoxy)pyridin-2-yl]-1H-pyrrol-3-yl}carbonyl)amino]propyl}imino)diacetate] | 24 | 60 | 
COC(=O)CN(CCNC(=O)c1c[nH]c(-c2cc(Oc3cc(C(=O)Nc4cc(C)ccc4F)ccc3F)ccn2)c1)CC(=O)OC [Example 179, dimethyl 2,2′-({2-[({5-[4-(2-fluoro-5-{[(2-fluoro-5-methylphenyl)amino]carbonyl}phenoxy)pyridin-2-yl]-1H-pyrrol-3-yl}carbonyl)amino]ethyl}imino)diacetate] | 21 | 50 | 
Cc1ccc(F)c(NC(=O)c2ccc(F)c(Oc3ccnc(-c4cc(C(=O)NCCN)c[nH]4)c3)c2)c1 [Example 182, N-(2-aminoethyl)-5-[4-(2-fluoro-5-{[(2-fluoro-5-methylphenyl)amino]carbonyl}phenoxy)pyridin-2-yl]-1H-pyrrole-3-carboxamide] | 33 | 86 | 
Cc1ccc(F)c(NC(=O)c2ccc(F)c(Oc3ccnc(-c4cc(C(=O)NCCNC(=O)OC(C)(C)C)c[nH]4)c3)c2)c1 [Example 183, tert-butyl {2-[({5-[4-(2-fluoro-5-{[(2-fluoro-5-methylphenyl)amino]carbonyl}phenoxy)pyridin-2-yl]-1H-pyrrol-3-yl}carbonyl)amino]ethyl}carbamate] | 24 | 100 | 
Cc1ccc(F)c(NC(=O)Nc2ccc(Oc3ccnc(-c4cc(C(=O)N5CCC5)c[nH]4)c3)cc2)c1 [Example 185, 1-[4-({2-[4-(azetidin-1-ylcarbonyl)-1H-pyrrol-2-yl]pyridin-4-yl}oxy)phenyl]-3-(2-fluoro-5-methylphenyl)urea] |  | 40 | 63
Cc1ccoc1C(=O)Nc1cc(Oc2ccnc(-c3cc(C(=O)NCCCN4CCCCC4)c[nH]3)c2)ccc1F [Example 191, 5-(4-{4-fluoro-3-[(3-methyl-2-furoyl)amino]phenoxy}pyridin-2-yl)-N-(3-piperidin-1-ylpropyl)-1H-pyrrole-3-carboxamide] | 25 | 42 | 
Cc1ccoc1C(=O)Nc1cc(Oc2ccnc(-c3cc(C(=O)NCCCN4CCCC4)c[nH]3)c2)ccc1F [Example 192, 5-(4-{4-fluoro-3-[(3-methyl-2-furoyl)amino]phenoxy}pyridin-2-yl)-N-(3-pyrrolidin-1-ylpropyl)-1H-pyrrole-3-carboxamide] | 26 | 34 | 
Cc1ccoc1C(=O)Nc1cc(Oc2ccnc(-c3cc(C(=O)NCCCN4CCOCC4)c[nH]3)c2)ccc1F [Example 194, 5-(4-{4-fluoro-3-[(3-methyl-2-furoyl)amino]phenoxy}pyridin-2-yl)-N-(3-morpholin-4-ylpropyl)-1H-pyrrole-3-carboxamide] | 23 | 25 | 
Cc1cccc(NC(=O)Nc2ccc(Oc3ccnc(-c4cc(C(=O)NCCCN5CCC(O)CC5)c[nH]4)c3)cc2)c1 [Example 235, N-[3-(4-hydroxypiperidin-1-yl)propyl]-5-{4-[4-({[(3-methylphenyl)amino]carbonyl}amino)phenoxy]pyridin-2-yl}-1H-pyrrole-3-carboxamide] |  | 14 | 15
COC(=O)CC[C@H](NC(=O)c1c[nH]c(-c2cc(Oc3cc(C(=O)Nc4cc(C)ccc4F)ccc3F)ccn2)c1)C(=O)O [Example 262, 2-[({5-[4-(2-fluoro-5-{[(2-fluoro-5-methylphenyl)amino]carbonyl}phenoxy)pyridin-2-yl]-1H-pyrrol-3-yl}carbonyl)amino]-5-methoxy-5-oxopentanoic acid] | 67 |  | 66
Cc1ccoc1C(=O)Nc1cccc(Oc2ccnc(-c3cc(C(=O)N[C@@H](CCC(=O)OC(C)(C)C)C(=O)O)c[nH]3)c2)c1 [Example 266, 5-tert-butoxy-2-({[5-(4-{3-[(3-methyl-2-furoyl)amino]phenoxy}pyridin-2-yl)-1H-pyrrol-3-yl]carbonyl}amino)-5-oxopentanoic acid] | 31 |  | 
Cc1ccc(F)c(NC(=O)Nc2ccc(Oc3ccnc(-c4cc(C(=O)NCCCN5CCC(O)CC5)c[nH]4)c3)cc2)c1 [Example 272, 5-{4-[4-({[(2-fluoro-5-methylphenyl)amino]carbonyl}amino)phenoxy]pyridin-2-yl}-N-[3-(4-hydroxypiperidin-1-yl)propyl]-1H-pyrrole-3-carboxamide] | 19 |  | 
Cc1cccc(NC(=O)c2ccc(F)c(Oc3ccnc(-c4cc(C(=O)NCCC(=O)O)c[nH]4)c3)c2)c1 [Example 275, 3-[({5-[4-(2-fluoro-5-{[(3-methylphenyl)amino]carbonyl}phenoxy)pyridin-2-yl]-1H-pyrrol-3-yl}carbonyl)amino]propanoic acid] | 19 |  | 

The remaining molecules from weak to strong by IC50 [1], led by results:

IC50 [1] [nM] | IC50 [2] [nM] | IC50 [3] [nM] | SMILES
18 |  |  | CCNC(=O)[C@H](CCC(=O)OC(C)(C)C)NC(=O)c1c[nH]c(-c2cc(Oc3cccc(NC(=O)c4occc4C)c3)ccn2)c1 [Example 265, tert-butyl 5-(ethylamino)-4-({[5-(4-{3-[(3-methyl-2-furoyl)amino]phenoxyl}pyridin-2-yl)-1H-pyrrol-3-yl]carbonyl}amino)-5-oxopentanoate]
15 |  |  | Cc1ccc(F)c(NC(=O)Nc2ccc(Oc3ccnc(-c4cc(C(=O)NCCCC(=O)NN)c[nH]4)c3)cc2)c1 [Example 177, 5-{4-[4-({[(2-fluoro-5-methylphenyl)amino]carbonyl}amino)phenoxy]pyridin-2-yl}-N-(4-hydrazino-4-oxobutyl)-1H-pyrrole-3-carboxamide]
15 |  |  | Cc1ccc(F)c(NC(=O)Nc2ccc(Oc3ccnc(-c4cc(C(=O)NCCCN5CCC(C(=O)O)C5)c[nH]4)c3)cc2)c1 (centres unmarked) [Example 268, 1-(3-{[(5-{4-[4-({[(2-fluoro-5-methylphenyl)amino]carbonyl}amino)phenoxy]pyridin-2-yl}-1H-pyrrol-3-yl)carbonyl]amino}propyl)pyrrolidine-3-carboxylic acid]
14 |  | 46 | CCNC(=O)CC[C@H](NC(=O)c1c[nH]c(-c2cc(Oc3ccc(NC(=O)Nc4cc(C)ccc4F)cc3)ccn2)c1)C(=O)NCC [Example 263, N,N′-diethyl-2-{[(5-{4-[4-({[(2-fluoro-5-methylphenyl)amino]carbonyl}amino)phenoxy]pyridin-2-yl}-1H-pyrrol-3-yl)carbonyl]amino}pentanediamide]
13 |  |  | COC(=O)CCNC(=O)c1c[nH]c(-c2cc(Oc3cc(C(=O)Nc4cccc(C)c4)ccc3F)ccn2)c1 [Example 277, methyl 3-[({5-[4-(2-fluoro-5-{[(3-methylphenyl)amino]carbonyl}phenoxy)pyridin-2-yl]-1H-pyrrol-3-yl}carbonyl)amino]propanoate]
10 | 21 |  | Cc1ccc(F)c(NC(=O)Nc2ccc(Oc3ccnc(-c4cc(C(=O)N5CCN(C(=O)OC(C)(C)C)CC5)c[nH]4)c3)cc2F)c1 [Example 224, tert-butyl 4-[(5-{4-[3-fluoro-4-({[(2-fluoro-5-methylphenyl)amino]carbonyl}amino)phenoxy]pyridin-2-yl}-1H-pyrrol-3-yl)carbonyl]piperazine-1-carboxylate]
9 | 11 |  | COCCOC(=O)c1c[nH]c(-c2cc(Oc3ccc(NC(=O)Nc4cc(C)ccc4F)c(F)c3)ccn2)c1 [Example 227, 2-methoxyethyl 5-{4-[3-fluoro-4-({[(2-fluoro-5-methylphenyl)amino]carbonyl}amino)phenoxy]pyridin-2-yl}-1H-pyrrole-3-carboxylate]
8 |  | 42 | COC(=O)CCNC(=O)c1c[nH]c(-c2cc(Oc3ccc(NC(=O)Nc4cccc(C)c4)c(F)c3)ccn2)c1 [Example 174, methyl 3-{[(5-{4-[3-fluoro-4-({[(3-methylphenyl)amino]carbonyl}amino)phenoxy]pyridin-2-yl}-1H-pyrrol-3-yl)carbonyl]amino}propanoate]
7 |  |  | Cc1cccc(NC(=O)Nc2ccc(Oc3ccnc(-c4cc(C(=O)OCC(CO)(CO)CO)c[nH]4)c3)cc2)c1 [Example 240, 3-hydroxy-2,2-bis(hydroxymethyl)propyl 5-{4-[4-({[(3-methylphenyl)amino]carbonyl}amino)phenoxy]pyridin-2-yl}-1H-pyrrole-3-carboxylate]
6 | 9 |  | Cc1ccc(F)c(NC(=O)Nc2ccc(Oc3ccnc(-c4cc(C(=O)NCCCN5CCCC5)c[nH]4)c3)cc2F)c1 [Example 226, 5-{4-[3-fluoro-4-({[(2-fluoro-5-methylphenyl)amino]carbonyl}amino)phenoxy]pyridin-2-yl}-N-(3-pyrrolidin-1-ylpropyl)-1H-pyrrole-3-carboxamide]
